Reference: PubChem BioAssay (NCI)
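How tested: cells in 96-well plates exposed to compound for 48 hours at five concentrations. The concentration for 50% growth inhibition is given as GI50. The concentration for full growth arrest is given as TGI.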

Assays:
Assay in all cases: NCI-60 cell line screen, 48 h
UACC-62 melanoma = test system: UACC-62 melanoma
SNB-75 CNS = test system: SNB-75 CNS
HCT-15 colon = test system: HCT-15 colon
A549 NSCLC = test system: A549 NSCLC
SN12C renal = test system: SN12C renal
SK-MEL-28 melanoma = test system: SK-MEL-28 melanoma
HOP-92 NSCLC = test system: HOP-92 NSCLC
SF-295 CNS = test system: SF-295 CNS
OVCAR-8 ovarian = test system: OVCAR-8 ovarian
786-0 renal = test system: 786-0 renal
U251 CNS = test system: U251 CNS
SK-MEL-2 melanoma = test system: SK-MEL-2 melanoma
EKVX NSCLC = test system: EKVX NSCLC
SW-620 colon = test system: SW-620 colon
COLO 205 colon = test system: COLO 205 colon
HCC-2998 colon = test system: HCC-2998 colon
IGROV1 ovarian = test system: IGROV1 ovarian
PC-3 prostate = test system: PC-3 prostate
SF-268 CNS = test system: SF-268 CNS
UACC-257 melanoma = test system: UACC-257 melanoma
SF-539 CNS = test system: SF-539 CNS
MDA-MB-435 = test system: MDA-MB-435
NCI-H460 lung = test system: NCI-H460 lung
TK-10 renal = test system: TK-10 renal
SK-MEL-5 melanoma = test system: SK-MEL-5 melanoma
SNB-19 CNS = test system: SNB-19 CNS
RPMI-8226 leukemia = test system: RPMI-8226 leukemia
ACHN renal = test system: ACHN renal
NCI-H23 lung = test system: NCI-H23 lung
HT29 colon = test system: HT29 colon
MOLT-4 leukemia = test system: MOLT-4 leukemia
MCF7 breast = test system: MCF7 breast
HS 578T breast = test system: HS 578T breast
A498 renal = test system: A498 renal
NCI-H522 lung = test system: NCI-H522 lung
NCI-H226 lung = test system: NCI-H226 lung
CAKI-1 renal = test system: CAKI-1 renal
HOP-62 NSCLC = test system: HOP-62 NSCLC
OVCAR-3 ovarian = test system: OVCAR-3 ovarian
HCT-116 colon = test system: HCT-116 colon
LOX IMVI melanoma = test system: LOX IMVI melanoma
MDA-MB-231 breast = test system: MDA-MB-231 breast
KM12 colon = test system: KM12 colon
MALME-3M melanoma = test system: MALME-3M melanoma
OVCAR-5 ovarian = test system: OVCAR-5 ovarian
DU-145 prostate = test system: DU-145 prostate
BT-549 breast = test system: BT-549 breast
T-47D breast = test system: T-47D breast
RXF 393 renal = test system: RXF 393 renal
K-562 leukemia = test system: K-562 leukemia
SR leukemia = test system: SR leukemia
OVCAR-4 ovarian = test system: OVCAR-4 ovarian
UO-31 renal = test system: UO-31 renal
CCRF-CEM leukemia = test system: CCRF-CEM leukemia
SK-OV-3 ovarian = test system: SK-OV-3 ovarian
NCI/ADR-RES ovarian = test system: NCI/ADR-RES ovarian
HL-60(TB) leukemia = test system: HL-60(TB) leukemia
M14 melanoma = test system: M14 melanoma

## Oc1ccccc1/C=N/Nc1nc2ccccc2s1
UACC-62 melanoma
  GI50: 8.97 µM
  TGI: > 100 µM
SNB-75 CNS
  GI50: 6.55 µM
  TGI: 32.2 µM
HCT-15 colon
  GI50: 2.17 µM
  TGI: > 100 µM
A549 NSCLC
  GI50: 6.52 µM
  TGI: > 100 µM
SN12C renal
  GI50: 22.9 µM
  TGI: > 100 µM
SK-MEL-28 melanoma
  GI50: 89 µM
  TGI: > 100 µM
HOP-92 NSCLC
  GI50: 0.74 µM
  TGI: 19.5 µM
SF-295 CNS
  GI50: 5.3 µM
  TGI: > 100 µM
OVCAR-8 ovarian
  GI50: 12 µM
  TGI: > 100 µM
786-0 renal
  GI50: 7.96 µM
  TGI: 89 µM
U251 CNS
  GI50: 8.1 µM
  TGI: > 100 µM
SK-MEL-2 melanoma
  GI50: 8.74 µM
  TGI: > 100 µM
EKVX NSCLC
  GI50: 8.73 µM
  TGI: > 100 µM
SW-620 colon
  GI50: 16.3 µM
  TGI: > 100 µM
COLO 205 colon
  GI50: 4.7 µM
  TGI: > 100 µM
HCC-2998 colon
  GI50: 5.37 µM
  TGI: > 100 µM
IGROV1 ovarian
  GI50: 2.77 µM
  TGI: > 100 µM
PC-3 prostate
  GI50: 11 µM
  TGI: > 100 µM
SF-268 CNS
  GI50: 3.8 µM
  TGI: > 100 µM
UACC-257 melanoma
  GI50: 8.87 µM
  TGI: > 100 µM
SF-539 CNS
  GI50: 4.67 µM
  TGI: > 100 µM
MDA-MB-435
  GI50: > 100 µM
  TGI: > 100 µM
NCI-H460 lung
  GI50: 3.41 µM
  TGI: > 100 µM
TK-10 renal
  GI50: 4.79 µM
  TGI: > 100 µM
SK-MEL-5 melanoma
  GI50: 7.36 µM
  TGI: > 100 µM
SNB-19 CNS
  GI50: 18.7 µM
  TGI: > 100 µM
RPMI-8226 leukemia
  GI50: 4.7 µM
  TGI: > 100 µM
ACHN renal
  GI50: 6.14 µM
  TGI: > 100 µM
NCI-H23 lung
  GI50: 23.3 µM
  TGI: > 100 µM
HT29 colon
  GI50: 21.1 µM
  TGI: > 100 µM
MOLT-4 leukemia
  GI50: 4.4 µM
  TGI: > 100 µM
MCF7 breast
  GI50: 1.16 µM
  TGI: > 100 µM
HS 578T breast
  GI50: 8.84 µM
  TGI: 58 µM
A498 renal
  GI50: 32.4 µM
  TGI: > 100 µM
NCI-H522 lung
  GI50: 4.74 µM
  TGI: > 100 µM
NCI-H226 lung
  GI50: 10.7 µM
  TGI: > 100 µM
CAKI-1 renal
  GI50: 2.95 µM
  TGI: > 100 µM
HOP-62 NSCLC
  GI50: 5.56 µM
  TGI: > 100 µM
OVCAR-3 ovarian
  GI50: 2.46 µM
  TGI: 34.7 µM
HCT-116 colon
  GI50: 2.85 µM
  TGI: > 100 µM
LOX IMVI melanoma
  GI50: 4.3 µM
  TGI: > 100 µM
MDA-MB-231 breast
  GI50: 2.49 µM
  TGI: > 100 µM
KM12 colon
  GI50: 3.1 µM
  TGI: > 100 µM
MALME-3M melanoma
  GI50: 30 µM
  TGI: > 100 µM
OVCAR-5 ovarian
  GI50: > 100 µM
  TGI: > 100 µM
DU-145 prostate
  GI50: 9.35 µM
  TGI: > 100 µM
BT-549 breast
  GI50: > 100 µM
  TGI: > 100 µM
T-47D breast
  GI50: 2.11 µM
  TGI: > 100 µM
RXF 393 renal
  GI50: 13.7 µM
  TGI: 39 µM
K-562 leukemia
  GI50: 6.48 µM
  TGI: > 100 µM
SR leukemia
  GI50: 7.71 µM
  TGI: > 100 µM
OVCAR-4 ovarian
  GI50: 2.31 µM
  TGI: > 100 µM
UO-31 renal
  GI50: 4.86 µM
  TGI: > 100 µM
CCRF-CEM leukemia
  GI50: 4.37 µM
  TGI: > 100 µM
SK-OV-3 ovarian
  GI50: 15.2 µM
  TGI: > 100 µM
NCI/ADR-RES ovarian
  GI50: 6.1 µM
  TGI: > 100 µM

## CCCCCCCC(=O)SCC/C=C/[C@@H]1CC(=O)NCc2cccc(n2)C2=N[C@@](C)(CS2)C(=O)N[C@@H](C(C)C)C(=O)O1
UACC-62 melanoma
  GI50: 0.0175 µM
  TGI: 0.128 µM
SNB-75 CNS
  GI50: 0.029 µM
  TGI: > 33.3 µM
HCT-15 colon
  GI50: 0.249 µM
  TGI: > 33.3 µM
A549 NSCLC
  GI50: 0.0362 µM
  TGI: > 33.3 µM
SN12C renal
  GI50: 0.145 µM
  TGI: > 33.3 µM
SK-MEL-28 melanoma
  GI50: 0.0312 µM
  TGI: 3.01 µM
HOP-92 NSCLC
  GI50: 0.0841 µM
  TGI: 0.52 µM
SF-295 CNS
  GI50: 0.0623 µM
  TGI: 0.546 µM
OVCAR-8 ovarian
  GI50: 0.0253 µM
  TGI: > 33.3 µM
786-0 renal
  GI50: 0.0989 µM
  TGI: > 33.3 µM
U251 CNS
  GI50: 0.0802 µM
  TGI: 0.782 µM
SK-MEL-2 melanoma
  GI50: 0.0369 µM
  TGI: 0.881 µM
EKVX NSCLC
  GI50: 0.0869 µM
  TGI: > 33.3 µM
SW-620 colon
  GI50: 0.0921 µM
  TGI: 3.72 µM
COLO 205 colon
  GI50: 0.0857 µM
  TGI: 0.337 µM
HCC-2998 colon
  GI50: 0.0528 µM
  TGI: 0.324 µM
IGROV1 ovarian
  GI50: 0.0263 µM
  TGI: 0.525 µM
PC-3 prostate
  GI50: 0.0437 µM
  TGI: > 33.3 µM
SF-268 CNS
  GI50: 0.0986 µM
  TGI: > 28 µM
SF-539 CNS
  GI50: 0.0563 µM
  TGI: > 33.3 µM
MDA-MB-435
  GI50: 0.0292 µM
  TGI: > 12.5 µM
HL-60(TB) leukemia
  GI50: 0.126 µM
  TGI: > 33.3 µM
NCI-H460 lung
  GI50: 0.0167 µM
  TGI: > 33.3 µM
TK-10 renal
  GI50: 0.0262 µM
  TGI: 0.361 µM
SK-MEL-5 melanoma
  GI50: 0.0271 µM
  TGI: 0.115 µM
SNB-19 CNS
  GI50: 0.191 µM
  TGI: > 33.3 µM
RPMI-8226 leukemia
  GI50: 0.193 µM
  TGI: > 33.3 µM
ACHN renal
  GI50: 0.0897 µM
  TGI: 0.693 µM
NCI-H23 lung
  GI50: 0.0858 µM
  TGI: > 33.3 µM
HT29 colon
  GI50: 0.0256 µM
  TGI: > 33.3 µM
MOLT-4 leukemia
  GI50: 0.0702 µM
  TGI: > 33.3 µM
MCF7 breast
  GI50: 0.0827 µM
  TGI: > 33.3 µM
HS 578T breast
  GI50: 0.0209 µM
  TGI: > 10.1 µM
A498 renal
  GI50: 0.0202 µM
  TGI: 0.111 µM
NCI-H522 lung
  GI50: 0.0192 µM
  TGI: 0.845 µM
NCI-H226 lung
  GI50: 0.21 µM
  TGI: > 9.23 µM
M14 melanoma
  GI50: 0.0348 µM
  TGI: > 33.3 µM
CAKI-1 renal
  GI50: 0.174 µM
HOP-62 NSCLC
  GI50: 0.0252 µM
  TGI: > 33.3 µM
OVCAR-3 ovarian
  GI50: 0.0877 µM
  TGI: 1.07 µM
HCT-116 colon
  GI50: 0.0148 µM
  TGI: 0.219 µM
LOX IMVI melanoma
  GI50: 0.0501 µM
  TGI: 0.193 µM
MDA-MB-231 breast
  GI50: 0.119 µM
  TGI: > 19.8 µM
KM12 colon
  GI50: 0.0719 µM
  TGI: 5.95 µM
OVCAR-5 ovarian
  GI50: 0.0254 µM
  TGI: > 33.3 µM
DU-145 prostate
  GI50: 0.0287 µM
  TGI: > 33.3 µM
BT-549 breast
  GI50: 0.19 µM
  TGI: > 33.3 µM
T-47D breast
  GI50: 0.147 µM
  TGI: 1.6 µM
RXF 393 renal
  GI50: 0.0534 µM
  TGI: 0.207 µM
K-562 leukemia
  GI50: 0.0829 µM
  TGI: > 33.3 µM
SR leukemia
  GI50: 0.0623 µM
  TGI: > 33.3 µM
OVCAR-4 ovarian
  GI50: 0.15 µM
  TGI: > 33.3 µM
UO-31 renal
  GI50: 0.0647 µM
  TGI: 1.03 µM
CCRF-CEM leukemia
  GI50: 0.112 µM
  TGI: > 33.3 µM
SK-OV-3 ovarian
  GI50: 0.0284 µM
  TGI: 0.596 µM
NCI/ADR-RES ovarian
  GI50: 0.319 µM
  TGI: > 33.3 µM
